A value given as a limit tells only on which side of the number the result lay.

Take `CC1(C)C(=O)NC(=O)c2c1ccc1nc(Nc3c(Cl)cccc3Cl)[nH]c21`: the melting point lay within 290 to 292 °C.
Take `CC(C)(C)c1nc(-c2ccc3ccccc3c2)c(-c2ccncc2)[nH]1`: the melting point lay in the range of 218 to 220 °C.
The compound `CSc1cc2c(cc1C(F)(F)F)N(C(=O)Nc1ccc(-c3csc(-c4cccnc4)n3)cc1)CC2` displayed a melting point of more than 25 °C.
Regarding `CCOC(C)O[C@H]1C(=O)N[C@H]1c1ccccc1` (some centres undefined), the melting point was 78 to 80 °C.
The compound `O=C(NCC#CCN1CCN(c2ncccn2)CC1)c1nsc2ccccc12` had a melting point of 102 to 104 °C.
In turn, `CS(=O)(=O)ON=C(Cl)c1ccc(Cl)c(Cl)c1` yielded a melting point of 73 to 75 °C.
In turn, `Cc1ccc(NC(=O)Cc2ccccc2)cc1` had a melting point of 119 to 120 °C.
Take `COc1ccc(N(N=Cc2ccccc2)C(=O)c2ccccc2)cc1`: the melting point was 151 to 153 °C.
For `CCOC(=O)Nc1ccc(C(=O)c2ccccc2)cc1COC1CCCCO1` (centres undefined), the melting point was determined as 116 °C.
`CC1(C)Cc2cc(OCCO)c3c(c2C(c2ccccc2)=N1)CC(C)(C)O3` displayed a melting point of 90 to 92 °C.
To `Cn1nc(-c2ccccc2)c2c(C(F)(F)F)cc(OCC(=O)N[C@H]3CCc4ccccc43)nc21` belongs 203 to 205 °C; to `COc1ccc2nc(-n3nc4c(c3O)-c3ccccc3CC4)sc2c1`, 204 to 205 °C.
To `COc1cc(C(=O)N2CCN(C(=O)c3cc(OC)c(OC)c(OC)c3)C(CNC(=O)OC(C)C)C2)cc(OC)c1OC` (centres undefined) belongs 140 °C; to `O=C(CCNC(=O)OCc1ccccc1)NC1C(C(=O)O)OC(n2cnc3c(NC(=O)c4ccccc4)ncnc32)C1O` (centres undefined), 136 to 141 °C.
Regarding `COc1ccc2c(c1)OCC(n1ccnc1)C2=O` (centres undefined), the melting point was 151 to 155 °C.
The compound `Cc1oc(-c2ccccc2)nc1COc1ccc2cc(/C=C/C=O)oc2c1` displayed a melting point of 132 to 133 °C.
Take `C=CCNc1cc(C(=O)OCC)nc2cn[nH]c12`: the melting point fell in the range of 140 to 145 °C.
As for `CCCc1c(SC(=S)N(CC)CC)c2cc(Br)ccc2oc1=O`, the melting point fell in the range of 135 to 137 °C.
With `CC(=O)Nc1ccc2c(c1)NC(=O)C2=C(C)C` the figure was 93 °C; with `CC(NC(=O)CSC(=O)c1ccccc1)C(=O)NCC(=O)NCC(=O)O` (centres undefined), 167 to 170 °C; with `OCC1=C(c2cc3ccccc3s2)N2CCN=C2S1`, 138 to 140 °C.
Regarding `CCCC/C=C\c1c([C@H](O)[C@H](CCCC)NC(=O)[C@H](CC(C)C)NC(=O)OCC2CCCCC2)c1=O`, the melting point lay in the range of 138 to 140 °C.
With `NS(=O)(=O)c1ccc(Br)c(Br)c1` the figure was 169 to 171 °C; with `CCOC(=O)c1ccc(Cn2cnc3cccnc32)cc1`, 104 to 106 °C; with `COC(=O)c1ccc(-c2cc(C)c3[nH]c(=O)ccc3c2)cc1`, 293 °C.
For `Cc1cccc(NC(=O)NC2N=C(c3ccccc3F)c3ccccc3N(Cc3nccc4ccccc34)C2=O)c1` (racemic), the melting point is 145 to 147 °C.
Turning to `Cc1ccc(NC(=O)c2nc[nH]c2C)cc1Cl`, the melting point lay in the range of 215 to 217 °C.
`O=C(O)C1=Cc2ccccc2NC1` came in with a melting point of 223 to 226 °C.
`CCCc1ncc(CCCCC(=O)O)s1` came in with a melting point of 124 °C.
As to `COc1ccc(/C(C#N)=C/c2ccc(OC)c(OC3CCCC3)c2)cc1OC`, the melting point is 101 to 103 °C.
`CC1(C)C(=O)Nc2ccc(-c3cccc([N+](=O)[O-])c3)cc21` returned a melting point of 234 to 235 °C.
The compound `O=C(CN1C2=NCCN2c2ccccc21)c1ccccc1` returned a melting point of 178 to 179 °C.
Regarding `CC(Oc1cccnc1)C(=O)Nc1ccc(C(=O)Nc2ccccc2N)cc1` (centres undefined), the melting point is 193 to 196 °C.
`Cc1cn(-c2ccc(NC(=O)c3ccc(C)c(C#Cc4ccc(NC5CC5)nn4)c3)cc2C(F)(F)F)cn1` had a melting point of 125 to 126 °C.
On to `COC(=O)c1ccc(N2C(=O)C(O)=C(C(=O)c3ccc(C)cc3)C2c2ccc(C(C)(C)C)cc2)nc1` (centres undefined), for which the melting point is 287 to 288 °C.
As for `CCC1C(=O)NC1C=COC(C)=O` (centres undefined), the melting point turned out to be 102 °C.
To `OCC=Cc1ccc(-c2ccc(OC(F)(F)F)cc2)cc1` belongs 121 to 123 °C.
The compound `N#Cc1c(Sc2ccccc2)cccc1[N+](=O)[O-]` gave a melting point of 106 to 107 °C.
`N#Cc1cnc2c(sc3ccccc32)c1Cl` registered a melting point of 305 to 308 °C.
Regarding `CN(C)C(=O)NCCCCC1CCSS1` (centres undefined), the melting point lay within 52 to 53 °C.
With `CNC(=O)Oc1ccc(N=Cc2ccccc2O)c2ccccc12`, the melting point was in the range of 143 to 146 °C.
The compound `Cc1cccc2c(CCN3CCCCC3)c(-c3ccccc3)[nH]c12` returned a melting point of 159 to 161 °C.
Turning to `OCc1ccc(C23CNCC2C3)cc1` (centres undefined), the melting point was in the range of 80 to 82 °C.
Compound `COCC(=O)N[C@H]1CC[C@H](CCN2CCN(c3nccc4c3CCO4)CC2)CC1` gave a melting point of 170 °C.
In turn, `Oc1nc2ccc3ncsc3c2nc1O` yielded a melting point of more than 360 °C.
For the compound `CNc1cc(NS(=O)(=O)c2ccc(N)cc2)nc(NC)n1`, the melting point lay within 303 to 305 °C.
For the compound `Cc1cc(OCC2CO2)c(N)c([N+](=O)[O-])c1` (centres undefined), the melting point is 90 to 91 °C.
The compound `Cc1cccc(NC(=O)NC2N=C(C(C)C)c3cccc(C)c3N(CC(=O)N3CC4CCC(CC4)C3)C2=O)c1` (centres undefined) gave a melting point of 190 to 193 °C.
In turn, `Brc1c(-c2ccccc2)n[nH]c1Sc1ccccc1` registered a melting point of 121 to 122 °C.
In turn, `CC(CO)(CO)NS(=O)(=O)c1cccc(NC(=O)c2cnn3c(C(F)(F)F)cc(-c4ccc(C(F)(F)F)cc4)nc23)c1` came in with a melting point of 248 °C.
Take `CC(C)NCC(O)COc1cccc2c1CC(=O)N2` (centres undefined): the melting point was in the range of 173 to 175 °C.
On to `CCCc1c(COc2ccc(Cc3nnn(CCCS(C)(=O)=O)n3)cc2)ccc(C(C)=O)c1O`, for which the melting point was in the range of 89 to 91 °C.
Turning to `O=C(NCCNC(=O)C1CCN(c2c(Cl)cncc2Cl)CC1)c1ccccc1`, the melting point was 209 to 211 °C.
`Nc1cccc(OCc2ncc3ccccc3n2)c1` came in with a melting point of 103 to 107 °C.
In the case of `CCCC(=O)NC[C@@H]1CN(c2nc3c(cc2F)c(=O)c(C(=O)OCC)cn3C2CC2)C[C@H]1F` (relative stereo), the melting point is 105 to 107 °C.
Compound `N#Cc1ccc2c(c1)Nc1ccc(Cl)cc1S2` had a melting point of 235 °C.
In turn, `O=C(O)c1cccc2ccoc12` came in with a melting point of 159 to 161 °C.
`O=C(c1ccccc1)C(Cc1ccccc1)C(=O)c1ccccc1` registered a melting point of 102 to 103 °C.
In turn, `CCOc1nc(N2CCSCC2)nc(Cl)c1[N+](=O)[O-]` showed a melting point of 149 to 150 °C.
On to `Cc1c(NC(=O)c2ccc(-c3ccc4c(c3)CCCO4)cc2)ccc2cc(CN3CCCC3)cnc12`, for which the melting point lay in the range of 195 to 197 °C.
In turn, `O=c1cc(-c2ccc(OCc3ccccc3)c(OCc3ccccc3)c2)oc2cc(OCCCCl)ccc12` registered a melting point of 153 °C.
Consider `O=C(NCc1ccccc1)N1C(=O)[C@H](O)[C@@H]1c1ccccc1`, for which the melting point fell in the range of 165 to 168 °C.
`CCc1cn2ccccc2c1S(=O)(=O)c1ccc(O)cc1`: the melting point was found to be 204 °C.
Regarding `O=C(/C=C/c1ccccc1Cl)Nc1ccc(-n2nc(C(F)(F)F)cc2C(F)(F)F)cc1`, the melting point lay in the range of 173 to 175 °C.
To `O=S1(=O)c2cccc3cccc(c23)N1CCN1CCC(CC2CNc3ccccc3C2)CC1` (centres undefined) belongs 134 °C; to `Cc1ccc(C2c3c(C)c(NC(=O)c4ccc5c(c4)OCO5)c(C)c(C)c3OC2(C)C)cc1` (centres undefined), 164 to 165 °C.
To `CCOC(=O)c1cc(OCc2ccccc2)c2nc(C)n(C)c2c1` belongs 152 °C; to `CC(C)CCCC(C)C1CCC2C3CC=C4CC(OCCCCCCS)CCC4(C)C3CCC12C` (centres undefined), 89 to 90 °C.
To `O=C1C=C(c2ccc(C(=O)N3Cc4cccn4Cc4ccccc43)cc2)CCC1` belongs 205 to 207 °C; to `CCOC(=O)C1=Cc2cc(Cl)cc(-c3ccc(Cl)cc3)c2OC1C(F)(F)F` (centres undefined), 114 to 116 °C.
`CC(c1ccc2ncccc2c1)n1nnc2ccc(-c3ccc(C(N)=O)c(Cl)c3)nc21` (centres undefined) came in with a melting point of 140 to 143 °C.
As for `N#CC(=CNC1CC1)C(=O)c1ccc(Cl)cc1Cl`, the melting point is 93 to 94 °C.
With `Cc1cccc(NC(=O)CN2CCN(c3ncccc3C#N)CC2)c1C` the figure was 124 to 126 °C; with `Cn1c(COc2ccc(CC3SC(=O)NC3=O)cc2)nc2ccc(Oc3ccc(O)cc3)cc21` (centres undefined), 126 to 131 °C.
Turning to `O=C(O)CCCCCCCCCC=Cc1ccccc1`, the melting point was 27 to 27.5 °C.
`CCCn1nc(C(C)C)c(C(=O)OCOC(=O)C(C)(C)C)c1Cc1ccc(-c2ccccc2-c2nnn[nH]2)cc1` gave a melting point of 62 to 67 °C.
For `O=S(=O)(Nc1ccc(Cl)cc1)c1ccc(Cl)cc1`, the melting point is 144 to 146 °C.
`O=C(c1ccc(F)cc1)C1CCN(CCCCn2c(=O)[nH]c3ccccc32)CC1` had a melting point of 176 °C.
On to `Nc1ccc(CN2CCN(Cc3ccc(N)cc3)C(=O)C2=O)cc1`, for which the melting point is 193 to 194 °C.
`CCN(CC)CCNC(=O)N1CCC(S(=O)c2ccc(Cl)cc2)C1` (centres undefined): the melting point lay in the range of 128 to 130 °C.
The compound `C=CCNC(=O)N1CC(Oc2cccc(C)c2)C1` returned a melting point of 95 to 96 °C.
`N#Cc1nn(-c2c(Cl)cc(C(F)(F)F)cc2Cl)cc1C1(C(F)(F)C(F)(F)C(F)(F)F)CC1` showed a melting point of 95 to 96 °C.
For the compound `CS(=O)(=O)c1cn(CC2=NCCN2)c2ccc(N)cc12`, the melting point lay within 215 to 217 °C.
To `CC(C)c1ccc(N(Cc2ccc(N(C)C)cc2)C(=O)C2CCc3c(O)cccc32)cc1` (centres undefined) belongs 158 to 160 °C; to `COc1ccc(CN2Cc3cc(N(C)C)ccc3N=C2N)cc1`, 175 to 180 °C.
To `CCOCCCOc1ccc2c(c1)C(N(C)S(C)(=O)=O)CC(C)(C)O2` (centres undefined) belongs 61 to 63 °C; to `Cn1c(CO)nc2ccc(-c3ccccc3)nc21`, 174 to 177 °C.
With `CC(C)(C)NC(=O)CCCCl` the figure was 62.5 to 64 °C; with `CCCn1nc2c(N)nc3ccccc3c2c1NCCC1CCN(S(C)(=O)=O)CC1`, 204 to 207 °C.
